We go through one compound from patent US20020049157A1, “Use of proteasome inhibitors for treating cancer, inflammation, autoimmune disease, graft rejection and septic shock” (priority 1998, published 2002).

Series [1] in a line: Activity of LAC in culture supernatants / medium over time. The class given is physicochemical. Particulars: for inhibitory activity of LAC-conditioned media on proteasome activity of fresh Jurkat cells: LAC 6 μM. The protocol:
C. The activity of LAC in culture supernatants is short-lived LAC (6 μM) was added to Jurkat cell culture (0.5×10^6 cells/ml). The supernatants were harvested at 4 h, 6 h, 16 h and 24 h. These conditioned media were used to culture fresh Jurkat cells for 3 h. The cells were then harvested and assayed for the proteasome activity as described in FIG. 4B. Samples were in duplicates.
We also investigated whether LAC was stable in the culture supernatant. LAC (6 μM) was added to Jurkat cells culture for 4 h, 6 h, 16 h or 24 h. The conditioned medium was harvested and used to treat fresh Jurkat cells for 3 h, and then the proteasome activity in the lysates of the fresh Jurkat cells was assayed. […] The loss of LAC activity in the 16 h and 24 h conditioned medium is unlikely due to trapping of LAC by proteasomes released by dead Jurkat cells, because LAC could rapidly enter the live cells and the equilibrium of the LAC concentration between both sides of the cytoplasmic membrane should be established very fast. Thus, the proteasomes whether released or not should not make a difference in terms of trapping LAC. Besides, we have also noticed that LAC kept in cell free culture medium at 4° C. would lose its activity within 24 h (data not shown).

The next series deals with Peripheral blood T cells. Briefly: Mitogen-stimulated T cell proliferation (3H-thymidine uptake). The class given is cell-based, human. Particulars: for inhibition of subsequent PHA-stimulated proliferation after preincubation and wash: 10 μM LAC; for inhibition of T cell proliferation (3H-thymidine uptake): LAC added at 0 h. The protocol:
(§1) Lymphocytes were stimulated with various mitogens as indicated, and LAC at different concentrations was added at the beginning of the cultures. The cells were pulsed with 3H-thymidine between 48 h and 64 h. Samples were in triplicates. All the experiments were performed at least three times and similar results were obtained. Representative results are shown.
A: Peripheral blood T cells stimulated with PHA (2 μg/ml).
B: Peripheral blood T cells stimulated with OKT3 (50 ng/ml).
C: Peripheral blood T cells stimulated with anti-CD28 (50 ng/ml) plus ionomycin (1 μg/ml).
A. The rapid effect of LAC Peripheral blood T cells were pretreated with 10 μM LAC in culture medium or in culture medium alone for 3 h or 16 h. The cells were then washed and recultured in the presence of 2 μg/ml PHA for 64 h. The cells were pulsed with ^3H-thymidine for 16 h before they were harvested at 64 h. Samples were in triplicates.
C and D. LAC blocks the S phase entry of the mitogen-stimulated peripheral blood T cells Peripheral blood T cells were stimulated with PHA (2 μ/ml) in the absence or presence of LAC (10 μM, added at 0 h, 16 h, 24 h, or 40 h, as indicated in the bottom of the panels). For the flow cytometry analysis of the cell cycle progress, the cells were harvested at 0 h, 1 6 h, 40 h and 64 h as indicated on the top of the panels (FIG. 6C). For ^3H-thymidine uptake, the triplicated cell samples were pulsed at 48 h and harvested at 64 h (FIG. 6D).
(§2) The role of proteasome in T cell activation and proliferation was first examined in PBMC, using the proteasome-specific inhibitor LAC. The PBMC were activated with various stimulants. LAC was added to the cells in the beginning of the culture (0 h) along with the stimulants. ^3H-thymidine uptake between 48 h and 64 h of 64 h cultures was used as a parameter for cell proliferation. […] Rather, it likely affects certain downstream events governing a more general process(es) in lymphocyte activation and proliferation.
We next investigated how fast and how long LAC could exert its effects on the lymphocytes, since this information is necessary to assess the requirement of the proteasome activity for events related to cell activation and proliferation. The cells were then washed and recultured in the presence of PHA. The thymidine uptake was measured 3 days later.
(§3) Peripheral blood mononuclear cells (PBMC) and tonsillar T cells were prepared as described before (Luo et al., 1992, Transplantation 53:1071; Luo et al., 1993, Clin. & Exp. Immunol. 94:371). The cells were cultured in RPMI 1640 supplemented with 10% FCS, L-glutamine and antibiotics. ^3H-thymidine uptake was carried out as described previously (Luo et al., 1992, supra; Luo et al., 1993, supra).

The subject of another series is Bik. Briefly: Immunoblotting of Bik in mitochondrial fraction of Jurkat cells. The series is classed as cell-based. Particulars: lactacystin 6 μM. How it is done: Jurkat cells were treated with lactacystin (6 μM) for 5 h (lanes 2 and 4 of panel […]) or 7 h (lane 3 of panel B), lane 1 in panels A and B is untreated control samples. The cells were separated into mitochondrial (mito in panel A and mitochondria in panel B) and cytosolic (cytosol in panel A) fractions, and the lysate of these two fractions analyzed by immunoblotting using goat anti-Bik, and rabbit anti-Bax, Bak and Bad Ab (all from Santa Cruz Biotech, Santa Cruz, Calif.) followed by enhanced chemiluminescence (ECL, kit from Amersham). […] Jurkat cells, wild type Namalwa cells and Bcl-xL transfected Namalwa cells were treated with medium (lanes 1), staurosporine (0.3 μM, lanes 2) and lactacystin (6 μM, lanes 3) for 6 H. The proteins from the mitochondrial fraction of these cells were analyzed by immunoblotting and the amount of Bik, Bcl-xL, Bax, and Bak evaluated. The same membranes were used sequentially and probed with different antibodies against these factors. A nonspecific band recognized by a monoclonal antibody against cytochrome […] (COX) was used as control for even sample loading in the lanes.
(A western blot detects proteins with antibodies after separation by electrophoresis.)

Another series concerns Tonsillar B cells. Briefly: B cell proliferation induced with SAC plus IL-2 (3H-thymidine uptake). The class given is cell-based, human. How it is done: as §1
D: Tonsillar B cells stimulated with SAC (1:15,000 dilution) and IL-2 (100 μ/ml).
as §2, §3

The test system of series [2] is chymotrypsin-like activity in the lysate of PBMC. Briefly: LAC-inhibitable chymotrypsin-like activity in PBMC lysates. The series is classed as biochemical, human. Particulars: 10 μM LAC.
Experimental: Human PBMC were cultured in the absence or presence of 2 μg/ml PHA or 10 nM RAPA for 16 h-70 h as indicated. The cells were then harvested, and the chymotrypsin-like activity of whole cells lysates was assayed in the absence or presence of 20 μM proteasome inhibitor LAC. The data are presented as arbitrary units of fluorescence intensity per 20 μg lysate protein. The experiments were repeated three times and a representative one is shown. Samples are in duplicate and the mean±SD is shown. (A) Total chymotrypsin-like activity in the lysate of PBMC. (B) Lactacystin-inhibitable chymotrypsin-like activity in the lysate of 70 h PBMC. […] LAC was always added to the lysates during the proteinase assay 15 min before the addition of the substrate. The solid bars represent the activity in the presence of LAC. The net proteasome activities are calculated as the total activity minus the remaining activity after the LAC addition.
PBMC were cultured with or without PHA (2 μg/ml) and RAPA (10 nM). After 16 h-70 h, the cells were harvested and sonicated in 300 μl PBS on ice for 40 sec. Twenty micrograms of protein per sample from the cleared lysates were supplemented to 100 μl with 0.1 M Tris buffer (pH 8.2). A proteasome-specific inhibitor lactacystin (Omura et al., 1991, supra; Fentenay et al., 1995, supra) was added at a final concentration of 10 nM in some samples as indicated. The samples were incubated on ice for 15 min, and fluorogenic chymotrypsin substrate sLLVY-MCA was then added at a final concentration of 10 nM. The 20S proteasome, which was prepared as previously described (Friguet et al, 1994, J. Biol. Chem. 269:21639), was used as a positive control in place of cell lysates. The samples were incubated at 37° C. for 15 min and the reaction was terminated by adding 4 μl 2.5 M HCl. The samples were then diluted to 2 ml with 0.1 M Tris pH8.2, and measured for their fluorescent intensity by a PTI fluorometer (Photo Technology International, South Brunswick, N.J.). The excitation wavelength was 380 nm, and the emission wavelength 440 mn.
The test system of series [3] is calpain, cathepsin B, chymotrypsin, trypsin, and papain. Particulars: cited from earlier work.

`CC(=O)N[C@@H](CSC(=O)[C@]1([C@@H](O)C(C)C)NC(=O)[C@H](C)[C@@H]1O)C(=O)O` [LAC, lactacystin]: the “inhibitory activity of LAC-conditioned media on proteasome activity of fresh Jurkat cells” value in series [1] (media conditioned 16 h and 24 h) is given as “lost their inhibitory effect”; in series [1] (media conditioned up to 6 h), “could still actively inhibit the enzymatic activity”. The “time in which LAC loses its activity” value in series [1] (cell free culture medium at 4° C., data not shown) is reported as no more than 24 h. Also, the “inhibition of subsequent PHA-stimulated proliferation after preincubation and wash” value in the series with Peripheral blood T cells (3 h preincubation) is listed as “significant inhibition”; with Peripheral blood T cells (16 h preincubation, compared with 3 h) it was “more effective”. Besides, the “inhibition of T cell proliferation (3H-thymidine uptake)” value with Peripheral blood T cells (Ca++ ionophore plus cross-linking of CD28) was “strongly and dose-dependently inhibited”; in the series with Peripheral blood T cells (crosslinking TCR with anti-CD3), “strongly and dose-dependently inhibited”; in the series with Peripheral blood T cells (induced by PHA, uptake 48-64 h), “strongly and dose-dependently inhibited”. For the same compound, in the series on Peripheral blood T cells (LAC at 5 μM, PHA, anti-CD3, anti-CD28 plus ionomycin systems), the “extent of inhibition of T cell proliferation” value is reported as “near-to-maximal inhibition”. In addition, the “inhibition of 3H-thymidine uptake” value in the series on Peripheral blood T cells (PHA, LAC 10 μM added as late as 40 h, pulsed 48 h, harvested 64 h) was “strongly inhibitory”. The “accumulation of Bik in Jurkat cells” value in the series with Bik (6 h, staurosporine 0.3 μM) is on record as “accumulates”. Also, the “amount of Bik” value in the series on Bik (4 h, 5 h and 7 h) was “demonstable increase”. The “inhibition of B cell proliferation (3H-thymidine uptake)” value with Tonsillar B cells (LAC added at 0 h) is “potently inhibited”. In the series on Tonsillar B cells (LAC at 5 μM), the “extent of inhibition of B cell proliferation” value is recorded as “near-to-maximal inhibition”. Moreover, the “inhibition of total chymotrypsin-like activity in the lysate” value in series [2] (70 h lysate from PHA plus RAPA-treated PBMC) is 86.7%; in series [2] (70 h lysate from PHA-treated PBMC), 76.7%; in series [2] (70 h lysate from medium-treated PBMC) it was 73.4%. Moreover, the “effect on other proteases” value in series [3] is recorded as “does not affect”.
